Laboratory results as given in publication PMC4941764, “Identification of 4-aminoquinoline core for the design of new cholinesterase inhibitors” (PeerJ, 2016).

Molecular target: T1, acetylcholinesterase (eeAChE) (Electrophorus electricus, UniProt O42275)
T1 construct: gene ache
Experiment: Ellman assay, single concentration ([…])
Type: biochemical

T1 sequence (O42275 24-633): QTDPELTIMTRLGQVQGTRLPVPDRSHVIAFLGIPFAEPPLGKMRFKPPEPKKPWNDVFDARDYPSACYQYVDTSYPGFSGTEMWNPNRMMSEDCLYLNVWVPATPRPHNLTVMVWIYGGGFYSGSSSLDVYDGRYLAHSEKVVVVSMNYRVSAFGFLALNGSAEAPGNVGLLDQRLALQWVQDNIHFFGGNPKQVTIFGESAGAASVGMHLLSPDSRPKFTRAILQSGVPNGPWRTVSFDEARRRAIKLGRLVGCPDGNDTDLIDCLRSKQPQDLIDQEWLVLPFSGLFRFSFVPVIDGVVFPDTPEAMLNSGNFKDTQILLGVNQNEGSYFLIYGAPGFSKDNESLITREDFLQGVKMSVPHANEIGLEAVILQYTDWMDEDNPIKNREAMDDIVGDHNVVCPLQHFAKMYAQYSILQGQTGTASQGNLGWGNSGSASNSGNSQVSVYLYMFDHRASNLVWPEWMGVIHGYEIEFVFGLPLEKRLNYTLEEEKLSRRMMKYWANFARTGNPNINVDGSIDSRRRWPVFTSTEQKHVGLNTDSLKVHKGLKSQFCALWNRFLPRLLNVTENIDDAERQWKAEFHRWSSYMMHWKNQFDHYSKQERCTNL

SMILES: Nc1ccnc2ccccc12 [compound 03, 4-aminoquinoline]
- inhibition at 10 µM: 68.3 ± 1.83%
